Reference: patent US20250230166A1, “OXADIAZOLE HDAC6 INHIBITORS AND USES THEREOF” (Eikonizo Therapeutics, Inc., priority 2022, published 2025)

Target: T1, Full length Human HDAC6 (Homo sapiens, UniProt Q9UBN7)
T1 construct: Full length Human HDAC6; FLAG (C); host or cells: baculovirus expression system
T1 sequence (Q9UBN7 1-1215): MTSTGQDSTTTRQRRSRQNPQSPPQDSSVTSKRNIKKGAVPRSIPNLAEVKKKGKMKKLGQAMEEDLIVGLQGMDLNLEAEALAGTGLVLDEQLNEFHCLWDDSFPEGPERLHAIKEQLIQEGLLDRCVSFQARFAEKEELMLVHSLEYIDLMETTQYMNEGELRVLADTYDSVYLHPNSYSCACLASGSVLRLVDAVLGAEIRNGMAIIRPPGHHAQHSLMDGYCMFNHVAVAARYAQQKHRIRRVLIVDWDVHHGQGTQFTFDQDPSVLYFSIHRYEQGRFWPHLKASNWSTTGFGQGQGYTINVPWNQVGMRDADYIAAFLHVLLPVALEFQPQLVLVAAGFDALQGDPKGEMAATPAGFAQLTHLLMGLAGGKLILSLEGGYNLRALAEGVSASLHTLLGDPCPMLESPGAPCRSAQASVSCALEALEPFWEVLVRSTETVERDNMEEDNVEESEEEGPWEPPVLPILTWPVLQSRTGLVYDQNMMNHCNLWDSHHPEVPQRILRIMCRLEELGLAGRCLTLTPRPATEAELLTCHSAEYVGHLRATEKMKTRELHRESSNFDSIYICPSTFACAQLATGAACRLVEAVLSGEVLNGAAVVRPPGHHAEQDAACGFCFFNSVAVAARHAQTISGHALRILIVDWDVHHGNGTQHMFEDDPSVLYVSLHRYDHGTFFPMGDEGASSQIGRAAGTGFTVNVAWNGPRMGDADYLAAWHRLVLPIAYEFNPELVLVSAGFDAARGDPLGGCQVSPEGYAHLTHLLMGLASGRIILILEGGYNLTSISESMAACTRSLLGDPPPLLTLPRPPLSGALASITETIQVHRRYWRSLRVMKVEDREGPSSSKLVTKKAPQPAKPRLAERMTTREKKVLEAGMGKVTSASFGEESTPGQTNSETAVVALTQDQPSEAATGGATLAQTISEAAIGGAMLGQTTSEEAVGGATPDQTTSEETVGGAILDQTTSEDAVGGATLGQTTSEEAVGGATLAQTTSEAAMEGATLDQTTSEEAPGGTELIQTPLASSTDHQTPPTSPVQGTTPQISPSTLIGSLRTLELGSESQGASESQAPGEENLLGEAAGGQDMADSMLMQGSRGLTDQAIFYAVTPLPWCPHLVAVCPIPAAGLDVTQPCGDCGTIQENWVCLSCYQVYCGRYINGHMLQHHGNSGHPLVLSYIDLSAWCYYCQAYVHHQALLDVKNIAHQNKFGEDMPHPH
Assay: In vitro HDAC6 enzymatic activity (Caliper endpoint assay or Nanosyn fluorogenic format)
Type: biochemical
Details: 30 min pre-incubation with enzyme

Row | IC50 [nM] | SMILES
1 | 1 to 100 | FC(F)c1nnc(-c2ccc(COc3ccc4cccnc4c3)nc2)o1 [Compound 34, 2-(difluoromethyl)-5-[6-(7-quinolyloxymethyl)-3-pyridyl]-1,3,4-oxadiazole]
2 | 1 to 100 | FC(F)c1nnc(-c2ccc(COc3cccc4ncccc34)nc2)o1 [Compound 63, 2-(difluoromethyl)-5-[6-(5-quinolyloxymethyl)-3-pyridyl]-1,3,4-oxadiazole]
